BindingDB's records for doi:10.1021/jm020050+ (Glaxosmithkline, 2002)

What was measured:
[1] = target: T1, Enoyl-[acyl-carrier-protein] reductase [NADH] FabI (Haemophilus influenzae (strain ATCC 51907 / DSM 11121 / KW20 / Rd), UniProt P44432); experiment: Enzyme Inhibition Assay; conditions: 30 °C
T1 sequence (P44432 whole entry): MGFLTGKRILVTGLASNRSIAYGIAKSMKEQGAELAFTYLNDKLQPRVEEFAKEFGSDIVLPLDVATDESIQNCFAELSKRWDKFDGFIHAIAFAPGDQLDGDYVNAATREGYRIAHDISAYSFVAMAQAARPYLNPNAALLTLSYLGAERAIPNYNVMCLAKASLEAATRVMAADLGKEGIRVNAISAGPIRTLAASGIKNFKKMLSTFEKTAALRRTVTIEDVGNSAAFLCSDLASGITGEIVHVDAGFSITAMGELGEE
Protocol: (§1) Assays were carried out in half-area, 96-well microtiter plates. Compounds were evaluated in assay mixtures containing components specific for each enzyme. […] The consumption of NAD(P)H was monitored for 20 min at 30 °C by following the change in absorbance at 340 nm. IC50 values were estimated from a fit of the initial velocities to a standard equation.

[2] = target: T2, Enoyl-[acyl-carrier-protein] reductase [NADPH] FabI (Staphylococcus aureus (strain MRSA252), UniProt Q6GI75); experiment: Enzyme Inhibition Assay; conditions: pH 6.5; 30 °C
T2 sequence (Q6GI75 whole entry): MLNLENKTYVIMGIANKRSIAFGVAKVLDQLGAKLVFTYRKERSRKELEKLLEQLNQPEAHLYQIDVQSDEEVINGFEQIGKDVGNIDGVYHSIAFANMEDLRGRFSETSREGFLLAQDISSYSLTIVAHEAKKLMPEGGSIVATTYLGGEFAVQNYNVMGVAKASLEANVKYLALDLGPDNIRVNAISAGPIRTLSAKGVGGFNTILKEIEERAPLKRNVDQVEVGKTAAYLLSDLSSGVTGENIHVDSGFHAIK
Protocol: as §1

| IC50 [1] [µM] | IC50 [2] [µM] | Compound |
| --- | --- | --- |
| > 100 | 676 | COC(=O)C[C@@H]1Nc2ccc(C(=O)N(C)Cc3cc4ccccc4n3C)cc2CN(C)C1=O [(2S)-2-[(Carbomethoxy)methyl]-N,4-dimethyl-N-(1-methyl-1H-indol-2-ylmethyl)-3-oxo-2,3,4,5-tetrahydro-1H-1,4-benzodiazepine-7-carboxamide] |
| – | 11.2 | CN(Cc1cc2ccccc2n1C)C(=O)/C=C/c1ccc(N)cc1 [(E)-3-(4-Aminophenyl)-N-methyl-N-(1-methyl-1H-indol-2-ylmethyl)acrylamide] |
| > 100 | – | CN(Cc1cc2ccccc2n1C)C(=O)c1ccccc1 [N-Methyl-N-(1-methyl-1H-indol-2-ylmethyl)benzamide] |
